Laboratory results reported in article PMC10447463, “Data-mining unveils structure–property–activity correlation of viral infectivity enhancing self-assembling peptides” (Nature Communications, 2023).
Read-outs that look alike come from different tables or passages of the source.

Columns and labels:
[1] = type: physicochemical; conditions: for ThT Cat. / ThT-Fluorescence (categorical): ThT-active if fluorescence at least twice the control
Method in brief: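 Preformed peptide fibrils (1 mg/mL) mixed with 50 µM ThT in PBS, 15 min at RT, fluorescence ex 440/em 488 nm versus PBS blank, triplicates. Zeta potential: peptides at 1 mg/mL in PBS pH 7.4, aged 1 d at RT, diluted in 1 mM KCl, Smoluchowski from electrophoretic mobility.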

[2] = Turbidity, derived count rate of scattered light; type: physicochemical; conditions: for Count Rate / kcps: derived count rate of scattered light at 633 nm, 173°, from zeta-potential measurement, 0.1 mg/mL in 1 mM KCl after 1 d at 1 mg/mL in PBS, turbidity / microscopic aggregation, mean of triplicate; for Log Count Rate: log of derived count rate
Method in brief: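 Samples: 1 mg/mL in PBS pH 7.4 (from DMSO), 1 d at RT, then diluted in 1 mM KCl immediately before measurement. Triplicates, two independent runs averaged.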

[3] = Log10 of derived count rate of scattered light (turbidity)
[4] = turbidity, Log10 of derived count rate of scattered light, Figure 3A source data
[5] = turbidity, log10 of derived count rate of scattered light
[6] = ThT fluorescence category, 1 if Rel. ThT >2
[7] = logarithm of count rate in kcps

Substance	Tht category (> 2 to blank = +) ([1]; Fig S10 panel D)	ThT Cat. ([1]; Fig S10 panel E)	ThT Cat, ([1]; ThT category, 1 if Rel. ThT >2)	ThT Cat. ([1]; ThT category, 1 if Rel. ThT >2)	ThT Cat. / ThT-Fluorescence (categorical) [1]	Log10 Count Rate [2, 3]	Count Rate / kcps [2] [kcps]	Log10 Count Rate [2, 4]	Log10 Count Rate [2, 5]	Tht category (> 2 to blank = +) ([1]; FigS12 panel A)	ThT Cat, ([1]; FigS12 panel B)	other results
KIKIQINMWQ	1 (ThT. Cat is 1, if Rel. ThT >2)	1 (ThT. Cat is 1, if Rel. ThT >2)	1 (ThT. Cat is 1, if Rel. ThT >2)	1 (ThT. Cat is 1, if Rel. ThT >2)	1 (ThT. Cat is 1, if Rel. ThT >2)	3.342	2196	3.342	3.342			
EIEIEIEI	0 (ThT-inactive (N-Fold <2))		0 (ThT-inactive (N-Fold <2))		0 (ThT-inactive (N-Fold <2))	2.731	538	2.731	2.731	0 (ThT-inactive (N-Fold <2))	0 (ThT-inactive (N-Fold <2))	ThT Cat. [1, 6]: 0 (ThT-inactive (N-Fold <2))
KIKIQINMW	1 (ThT. Cat is 1, if Rel. ThT >2)		1 (ThT. Cat is 1, if Rel. ThT >2)		1 (ThT. Cat is 1, if Rel. ThT >2)	2.38	240	2.38	2.38			ThT Cat. [1, 6]: 1 (ThT. Cat is 1, if Rel. ThT >2)
QCKIKQII	1 (ThT. Cat is 1, if Rel. ThT >2)		1 (ThT. Cat is 1, if Rel. ThT >2)	1 (ThT. Cat is 1, if Rel. ThT >2)	1 (ThT. Cat is 1, if Rel. ThT >2)	2.479	301	2.479	2.479	1 (ThT. Cat is 1, if Rel. ThT >2)	1 (ThT. Cat is 1, if Rel. ThT >2)	
HHHHEIEIEIEI	1 (ThT. Cat is 1, if Rel. ThT >2)		1 (ThT. Cat is 1, if Rel. ThT >2)		1 (ThT. Cat is 1, if Rel. ThT >2)	2.014	103	2.014		1 (ThT. Cat is 1, if Rel. ThT >2)	1 (ThT. Cat is 1, if Rel. ThT >2)	ThT Cat. [1, 6]: 1 (ThT. Cat is 1, if Rel. ThT >2); Log10 Count Rate ([2]; log10 of derived count rate of scattered light (turbidity)): 2.014
KKFQKKFQ	0 (ThT-inactive (N-Fold <2))		0 (ThT-inactive (N-Fold <2))	0 (ThT-inactive (N-Fold <2))	0 (ThT-inactive (N-Fold <2))	1.867	74	1.867	1.867	0 (ThT-inactive (N-Fold <2))	0 (ThT-inactive (N-Fold <2))	
KVKVKVQV	1 (ThT. Cat is 1, if Rel. ThT >2)		1 (ThT. Cat is 1, if Rel. ThT >2)	1 (ThT. Cat is 1, if Rel. ThT >2)	1 (ThT. Cat is 1, if Rel. ThT >2)	1.975	94	1.975	1.975	1 (ThT. Cat is 1, if Rel. ThT >2)	1 (ThT. Cat is 1, if Rel. ThT >2)	
KIKIQINMAQ	0 (ThT-inactive (N-Fold <2))		0 (ThT-inactive (N-Fold <2))		0 (ThT-inactive (N-Fold <2))	3.768	5859	3.768	3.768			ThT Cat. [1, 6]: 0 (ThT-inactive (N-Fold <2))
QCKIKQIINMWQ [reference compound]	1 (ThT. Cat is 1, if Rel. ThT >2)	1 (ThT. Cat is 1, if Rel. ThT >2)	1 (ThT. Cat is 1, if Rel. ThT >2)	1 (ThT. Cat is 1, if Rel. ThT >2)	1 (ThT. Cat is 1, if Rel. ThT >2)	3.415	2606	3.415	3.415			Tht rel to blank (42.1851851851852) ([1]; ThT fluorescence relative to blank (42.1851851851852 a.u.)): 3.802; Tht rel to blank (42.1851851851852) ([1]; ThT fluorescence relative to blank, blank = 42.1851851851852): 3.802; Tht category (> 1.5 to blank = +) ([1]; category 1/0): 1 (ThT. Cat is 1, if Rel. ThT >2); Tht rel to blank (42.1851851851852) ([1]; relative to blank 42.1851851851852 a.u.): 3.802; Log Count Rate ([2]; Fig S8 panels A, C, asymmetric log errors): 3.415; Log Count Rate ([2]; Fig S8 panels B, D): 3.415; Count Rate ([2]; Fig S8 panels B, D, turbidity, derived count rate of scattered light): 2602.27; Zeta Count Rate Category ([2]; category 1 / 0, no key given): 1; Zeta Count Rate Category ([2]; category 1 or 0 from count rate, key not given): 1; Zeta Count Rate / kcps ([2]; derived count rate of scattered light): 2602 kcps; Zeta Count Rate / kcps ([2]; derived count rate of scattered light, mean, std deviation in next column): 2602 kcps; Zeta Count Rate / kcps ([2]; derived count rate of scattered light, mean, std deviation in separate column): 2602 kcps; Log10 Count Rate [2, 7]: 3.415
RLRLTLC	0 (ThT-inactive (N-Fold <2))	0 (ThT-inactive (N-Fold <2))	0 (ThT-inactive (N-Fold <2))	0 (ThT-inactive (N-Fold <2))	0 (ThT-inactive (N-Fold <2))	2.0991	126	2.0991	2.0991	0 (ThT-inactive (N-Fold <2))	0 (ThT-inactive (N-Fold <2))	
KIRGKFEKED	1 (ThT. Cat is 1, if Rel. ThT >2)		1 (ThT. Cat is 1, if Rel. ThT >2)	1 (ThT. Cat is 1, if Rel. ThT >2)	1 (ThT. Cat is 1, if Rel. ThT >2)	2.331	214	2.331	2.331	1 (ThT. Cat is 1, if Rel. ThT >2)	1 (ThT. Cat is 1, if Rel. ThT >2)	
KIKQIINMWQ	1 (ThT. Cat is 1, if Rel. ThT >2)	1 (ThT. Cat is 1, if Rel. ThT >2)	1 (ThT. Cat is 1, if Rel. ThT >2)	1 (ThT. Cat is 1, if Rel. ThT >2)	1 (ThT. Cat is 1, if Rel. ThT >2)	2.789	616	2.789	2.789			Log10 Count Rate [2, 7]: 2.789
CKIKQIINM	1 (ThT. Cat is 1, if Rel. ThT >2)	1 (ThT. Cat is 1, if Rel. ThT >2)	1 (ThT. Cat is 1, if Rel. ThT >2)	1 (ThT. Cat is 1, if Rel. ThT >2)	1 (ThT. Cat is 1, if Rel. ThT >2)	3.957	9058	3.957	3.957			
CHLHLQL	1 (ThT. Cat is 1, if Rel. ThT >2)	1 (ThT. Cat is 1, if Rel. ThT >2)	1 (ThT. Cat is 1, if Rel. ThT >2)	1 (ThT. Cat is 1, if Rel. ThT >2)	1 (ThT. Cat is 1, if Rel. ThT >2)	3.062	1155	3.062	3.062	1 (ThT. Cat is 1, if Rel. ThT >2)	1 (ThT. Cat is 1, if Rel. ThT >2)	Log10 Count Rate [2, 7]: 3.062
NMWQKFKFQF	0 (ThT-inactive (N-Fold <2))		0 (ThT-inactive (N-Fold <2))	0 (ThT-inactive (N-Fold <2))	0 (ThT-inactive (N-Fold <2))	4.148	14045	4.148	4.148			
RPRGLLLGNLR	0 (ThT-inactive (N-Fold <2))		0 (ThT-inactive (N-Fold <2))	0 (ThT-inactive (N-Fold <2))	0 (ThT-inactive (N-Fold <2))	2.322	210	2.322	2.322	0 (ThT-inactive (N-Fold <2))	0 (ThT-inactive (N-Fold <2))	
MKFKFQF	0 (ThT-inactive (N-Fold <2))	0 (ThT-inactive (N-Fold <2))	0 (ThT-inactive (N-Fold <2))	0 (ThT-inactive (N-Fold <2))	0 (ThT-inactive (N-Fold <2))	2.0933	124	2.0933	2.0933	0 (ThT-inactive (N-Fold <2))	0 (ThT-inactive (N-Fold <2))	
